Experimental data from patent US20230085307A1, “PYRIDAZINONE COMPOUND AND HERBICIDE” (NISSAN CHEMICAL CORPORATION, priority 2019, published 2023).

Tests used:
rice flat sedge = experiment: Test Example 3: herbicidal effect by foliage application, Wagner pot (Table 18, symbol E); assay type: in vivo, rice flat sedge (Cyperus iria); conditions: for herbicidal effect on rice flat sedge (E): 320 g/ha
In short: (§1)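 Plants were sown in alluvial soil held under 0.1–0.5 cm standing water and grown 14 days in a greenhouse at 25–30 °C. An emulsifiable formulation, water-diluted to the set dose, was then sprayed onto the foliage, and effects were scored three weeks later using previously defined criteria.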

barnyard grass [1] = experiment: Test Example 5: herbicidal effect by foliage application, plastic box (Table 20, symbol H); assay type: in vivo, barnyard grass (Echinochloa crus-galli); conditions: foliage application, 320 g/ha, three weeks after application
In short: (§2)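 Plants were sown into sterilized diluvial soil under about 1.5 cm cover and kept in a greenhouse at 25° C. to 30° C. Fourteen days on, foliage received an even spray of the diluted emulsion. Herbicidal or crop effect was judged three weeks afterwards.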

barnyard grass [2] = experiment: Test Example 3: herbicidal effect by foliage application, Wagner pot (Table 18, symbol H); assay type: in vivo, barnyard grass (Echinochloa crus-galli); conditions: for herbicidal effect on barnyard grass (H): 320 g/ha
In short: as §1

oval-leafed pondweed = experiment: Test Example 1: herbicidal activity, application before weed generation under submerged conditions (Table 16, symbol C); assay type: in vivo, oval-leafed pondweed (Monochoria vaginalis); conditions: amount of applied herbicide 320 g/ha
Description: [Test Example 1] Herbicidal Activity Test by Application before Weed Generation under Submerged Conditions After alluvial soil was placed into 1/10000 are of Wagner pot, water was poured and mixed to form a submerged condition having a water depth of 4 cm. Seeds of late watergrass, Japanese bulrush, and oval-leafed pondweed were sowed in a mixed manner in the aforementioned pot, and then 2.5 leaf stage rice plant seedlings were transplanted thereto. On the day of sowing seeds, the emulsion agent of the compound of the present invention prepared according to Formulation Example 2 was diluted with water so as to achieve a predetermined herbicide amount, and the diluted emulsion agent was applied to the surface of the water. The pot was placed in a greenhouse at 25° C. to 30° C. for growth of the plants. Three weeks after the herbicide application, the effect of the herbicide on each plant was evaluated according to the following criteria. Evaluation Criteria 5: Herbicidal rate of 90% or more (almost completely withered) 4: Herbicidal rate of 70% or more and less than 90% 3: Herbicidal rate of 40% or more and less than 70% 2: Herbicidal rate of 20% or more and less than 40% 1: Herbicidal rate of 5% or more and less than 20% 0: Herbicidal rate of 5% or less (almost no effect)

velvetleaf [3] = experiment: Test Example 4: herbicidal effect by soil treatment (Table 19, symbol M); assay type: in vivo, velvetleaf (Abutilon theophrasti); conditions: amount of applied herbicide 320 g/ha
In short: (§3)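 In this soil treatment, the formulated compound reached the seeds only through the soil: seeds were buried about 1.5 cm deep in sterilized diluvial soil, then the diluted emulsion was sprayed over the surface. After three weeks at 25° C. to 30° C. in a greenhouse, effects were graded on criteria from an earlier test.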

velvetleaf [4] = experiment: Test Example 5: herbicidal effect by foliage application, plastic box (Table 20, symbol M); assay type: in vivo, velvetleaf (Abutilon theophrasti); conditions: foliage application, 320 g/ha, three weeks after application
In short: as §2

Japanese bulrush = experiment: Test Example 1: herbicidal activity, application before weed generation under submerged conditions (Table 16, symbol B); assay type: in vivo, Japanese bulrush (Schoenoplectus juncoides); conditions: amount of applied herbicide 320 g/ha
In short: (§4)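 Emulsion formulation, water-diluted to set dose, was put onto the flooded surface (4 cm depth, alluvial soil) the same day weeds were sown and 2.5-leaf rice transplanted. After 3 weeks at 25-30 °C under glass, each species was rated 0 (≤5% kill) to 5 (≥90% kill).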

lambsquarters [5] = experiment: Test Example 5: herbicidal effect by foliage application, plastic box (Table 20, symbol O); assay type: in vivo, lambsquarters (Chenopodium album); conditions: foliage application, 320 g/ha, three weeks after application
In short: as §2

southern crabgrass [6] = experiment: Test Example 4: herbicidal effect by soil treatment (Table 19, symbol F); assay type: in vivo, southern crabgrass (Digitaria ciliaris); conditions: amount of applied herbicide 320 g/ha
In short: as §3

southern crabgrass [7] = experiment: Test Example 5: herbicidal effect by foliage application, plastic box (Table 20, symbol F); assay type: in vivo, southern crabgrass (Digitaria ciliaris); conditions: foliage application, 320 g/ha, three weeks after application
In short: as §2

redroot pigweed [8] = experiment: Test Example 4: herbicidal effect by soil treatment (Table 19, symbol N); assay type: in vivo, redroot pigweed (Amaranthus retroflexus); conditions: amount of applied herbicide 320 g/ha
In short: as §3

green foxtail [9] = experiment: Test Example 5: herbicidal effect by foliage application, plastic box (Table 20, symbol G); assay type: in vivo, green foxtail (Setaria viridis); conditions: foliage application, 320 g/ha, three weeks after application
In short: as §2

barnyard grass [10] = experiment: Test Example 4: herbicidal effect by soil treatment (Table 19, symbol H); assay type: in vivo, barnyard grass (Echinochloa crus-galli); conditions: amount of applied herbicide 320 g/ha
In short: as §3

green foxtail [11] = experiment: Test Example 4: herbicidal effect by soil treatment (Table 19, symbol G); assay type: in vivo, green foxtail (Setaria viridis); conditions: amount of applied herbicide 320 g/ha
In short: as §3

lambsquarters [12] = experiment: Test Example 4: herbicidal effect by soil treatment (Table 19, symbol O); assay type: in vivo, lambsquarters (Chenopodium album); conditions: amount of applied herbicide 320 g/ha
In short: as §3

redroot pigweed [13] = experiment: Test Example 5: herbicidal effect by foliage application, plastic box (Table 20, symbol N); assay type: in vivo, redroot pigweed (Amaranthus retroflexus); conditions: foliage application, 320 g/ha, three weeks after application
In short: as §2

late watergrass = experiment: Test Example 1: herbicidal activity, application before weed generation under submerged conditions (Table 16, symbol A); assay type: in vivo, late watergrass (Echinochloa oryzicola); conditions: amount of applied herbicide 320 g/ha
In short: as §4

Chinese sprangletop = experiment: Test Example 3: herbicidal effect by foliage application, Wagner pot (Table 18, symbol D); assay type: in vivo, chinese sprangletop (Leptochloa chinensis); conditions: for herbicidal effect on Chinese sprangletop (D): 320 g/ha
In short: as §1

[14] = amount of applied herbicide 320 g/ha

For `Cc1nn(C)c(=O)c(-c2c(-c3ccc(OCC[S+](C)[O-])cc3)sc3ccc(F)cc23)c1O` (centres unmarked) [2-443], the “herbicidal effect on E: rice flat sedge” value (rice flat sedge; [14]) was 5 (Herbicidal rate of 90% or more (almost completely withered)), the “H: barnyard grass, herbicidal effect grade” value (barnyard grass [1]) was 5 (Herbicidal rate of 90% or more (almost completely withered)) and the “herbicidal effect on H: barnyard grass” value (barnyard grass [2]; [14]) was 5 (Herbicidal rate of 90% or more (almost completely withered)). The “Herbicidal effect, C: oval-leafed pondweed” value (from here on “Herbicidal effect, C”) (oval-leafed pondweed) was 0 (Herbicidal rate of 5% or less (almost no effect)), the “herbicidal effect, M: velvetleaf” value (velvetleaf [3]) was 3 (Herbicidal rate of 40% or more and less than 70%) and the “M: velvetleaf, herbicidal effect grade” value (velvetleaf [4]) was 5 (Herbicidal rate of 90% or more (almost completely withered)). The “Herbicidal effect, B: Japanese bulrush” value (Japanese bulrush) was 0 (Herbicidal rate of 5% or less (almost no effect)), the “O: lambsquarters, herbicidal effect grade” value (lambsquarters [5]) was 5 (Herbicidal rate of 90% or more (almost completely withered)) and the “herbicidal effect, F: southern crabgrass” value (southern crabgrass [6]) was 5 (Herbicidal rate of 90% or more (almost completely withered)). For the same compound, the “F: southern crabgrass, herbicidal effect grade” value (southern crabgrass [7]) was 5 (Herbicidal rate of 90% or more (almost completely withered)), the “herbicidal effect, N: redroot pigweed” value (redroot pigweed [8]) was 5 (Herbicidal rate of 90% or more (almost completely withered)) and the “G: green foxtail, herbicidal effect grade” value (green foxtail [9]) was 5 (Herbicidal rate of 90% or more (almost completely withered)). For the same compound, the “herbicidal effect, H: barnyard grass” value (barnyard grass [10]) was 5 (Herbicidal rate of 90% or more (almost completely withered)), the “herbicidal effect, G: green foxtail” value (green foxtail [11]) was 5 (Herbicidal rate of 90% or more (almost completely withered)) and the “herbicidal effect, O: lambsquarters” value (lambsquarters [12]) was 4 (Herbicidal rate of 70% or more and less than 90%). For the same compound, the “N: redroot pigweed, herbicidal effect grade” value (redroot pigweed [13]) was 5 (Herbicidal rate of 90% or more (almost completely withered)), the “Herbicidal effect, A: late watergrass” value (late watergrass) was 3 (Herbicidal rate of 40% or more and less than 70%) and the “herbicidal effect on D: Chinese sprangletop” value (Chinese sprangletop; [14]) was 4 (Herbicidal rate of 70% or more and less than 90%).
For `Cc1nn(C)c(=O)c(-c2c(-c3ccc(Cl)cc3)sc3cc(F)c(F)cc23)c1OCc1ccccc1` [5-083], the “herbicidal effect on rice flat sedge (E)” value (rice flat sedge) was 2 (Herbicidal rate of 20% or more and less than 40%), the “herbicidal effect on barnyard grass (H)” value (barnyard grass [2]) was 1 (Herbicidal rate of 5% or more and less than 20%) and the “Herbicidal effect, C” value (oval-leafed pondweed) was 0 (Herbicidal rate of 5% or less (almost no effect)). For the same compound, the “Herbicidal effect, B: Japanese bulrush” value (Japanese bulrush) was 3 (Herbicidal rate of 40% or more and less than 70%), the “Herbicidal effect, A: late watergrass” value (late watergrass) was 0 (Herbicidal rate of 5% or less (almost no effect)) and the “herbicidal effect on Chinese sprangletop (D)” value (Chinese sprangletop) was 0 (Herbicidal rate of 5% or less (almost no effect)).
In the case of `Cc1nn(C)c(=O)c(-c2c(-c3ccc(OC(F)(F)F)cc3)sc3cc(F)c(F)cc23)c1O` [5-105], the “herbicidal effect on rice flat sedge (E)” value (rice flat sedge) is reported as 0 (Herbicidal rate of 5% or less (almost no effect)), the “herbicidal effect on barnyard grass (H)” value (barnyard grass [1]) is reported as 5 (Herbicidal rate of 90% or more (almost completely withered)) and the “herbicidal effect on barnyard grass (H)” value (barnyard grass [2]) is reported as 5 (Herbicidal rate of 90% or more (almost completely withered)). The “Herbicidal effect, C” value (oval-leafed pondweed) was 0 (Herbicidal rate of 5% or less (almost no effect)), the “M: velvetleaf, herbicidal effect grade” value (velvetleaf [3]) was 2 (Herbicidal rate of 20% or more and less than 40%) and the “herbicidal effect on velvetleaf (M)” value (velvetleaf [4]) was 4 (Herbicidal rate of 70% or more and less than 90%). For the same compound, the “Herbicidal effect, B: Japanese bulrush” value (Japanese bulrush) was 0 (Herbicidal rate of 5% or less (almost no effect)), the “herbicidal effect on lambsquarters (O)” value (lambsquarters [5]) was 5 (Herbicidal rate of 90% or more (almost completely withered)) and the “F: southern crabgrass, herbicidal effect grade” value (southern crabgrass [6]) was 0 (Herbicidal rate of 5% or less (almost no effect)). The “herbicidal effect on southern crabgrass (F)” value (southern crabgrass [7]) was 4 (Herbicidal rate of 70% or more and less than 90%), the “N: redroot pigweed, herbicidal effect grade” value (redroot pigweed [8]) was 3 (Herbicidal rate of 40% or more and less than 70%) and the “herbicidal effect on green foxtail (G)” value (green foxtail [9]) was 5 (Herbicidal rate of 90% or more (almost completely withered)). The “H: barnyard grass, herbicidal effect grade” value (barnyard grass [10]) was 0 (Herbicidal rate of 5% or less (almost no effect)), the “G: green foxtail, herbicidal effect grade” value (green foxtail [11]) was 0 (Herbicidal rate of 5% or less (almost no effect)) and the “O: lambsquarters, herbicidal effect grade” value (lambsquarters [12]) was 4 (Herbicidal rate of 70% or more and less than 90%). For the same compound, the “Herbicidal effect, A: late watergrass” value (late watergrass) was 2 (Herbicidal rate of 20% or more and less than 40%) and the “herbicidal effect on Chinese sprangletop (D)” value (Chinese sprangletop) was 0 (Herbicidal rate of 5% or less (almost no effect)).
